In PMC10178848, “Modulating fast skeletal muscle contraction protects skeletal muscle in animal models of Duchenne muscular dystrophy” (The Journal of Clinical Investigation, 2023):

System: GRMD plasma proteins
Assay type: in vivo, dog
Details: Post-Treatment to GRMD baseline

O=c1ccc(-c2cnc(OCC(F)(F)F)nc2)nn1Cc1cncc(F)c1 [EDG-5506]
Protein jagged-1 (JAG1): Change from GRMD Baseline (fraction) (Decreased in GRMD): 0.0021 fraction
Retinol-binding protein 4 (RBP4): Change from GRMD Baseline (fraction) (Decreased in GRMD): 0.0032 fraction
Roundabout homolog 2 (ROBO2): Change from GRMD Baseline (fraction) (Decreased in GRMD): -0.0814 fraction
SLIT and NTRK-like protein 5 (SLITRK5): Change from GRMD Baseline (fraction) (Decreased in GRMD): -0.2994 fraction
SPARC (SPARC): Change from GRMD Baseline (fraction) (Decreased in GRMD): -0.1611 fraction
Sclerostin (SOST): Change from GRMD Baseline (fraction) (Decreased in GRMD): 0.0855 fraction
Semaphorin-3E (SEMA3E): Change from GRMD Baseline (fraction) (Decreased in GRMD): -0.1435 fraction
Semaphorin-5A (SEMA5A): Change from GRMD Baseline (fraction) (Decreased in GRMD): -0.108 fraction
Serum albumin (ALB): Change from GRMD Baseline (fraction) (Decreased in GRMD): -0.0304 fraction
Sialic acid-binding Ig-like lectin 6 (SIGLEC6): Change from GRMD Baseline (fraction) (Decreased in GRMD): 0.0534 fraction
Stem cell growth factor-alpha (CLEC11A): Change from GRMD Baseline (fraction) (Decreased in GRMD): -0.1896 fraction
T-lymphocyte surface antigen Ly-9 (LY9): Change from GRMD Baseline (fraction) (Decreased in GRMD): 0.0022 fraction
TGF-beta receptor type-2 (TGFBR2): Change from GRMD Baseline (fraction) (Decreased in GRMD): 0.1736 fraction
Tropomyosin alpha-1 chain (TPM1): Change from GRMD Baseline (fraction) (Decreased in GRMD): 0.8207 fraction
Tumor necrosis factor receptor superfamily member 10B (TNFRSF10B): Change from GRMD Baseline (fraction) (Decreased in GRMD): -0.0324 fraction
Tumor necrosis factor-inducible gene 6 protein (TNFAIP6): Change from GRMD Baseline (fraction) (Decreased in GRMD): 1.4994 fraction
Wnt inhibitory factor 1 (WIF1): Change from GRMD Baseline (fraction) (Decreased in GRMD): -0.1154 fraction
Activated Protein C (PROC): Change from GRMD Baseline (fraction) (Increased in GRMD): 0.4863 fraction
Adiponectin (ADIPOQ): Change from GRMD Baseline (fraction) (Increased in GRMD): 0.0194 fraction
Alanine aminotransferase 1 (GPT): Change from GRMD Baseline (fraction) (Increased in GRMD): 0.0095 fraction
Alpha-2-antiplasmin (SERPINF2): Change from GRMD Baseline (fraction) (Increased in GRMD): -0.0109 fraction
Apolipoprotein D (APOD): Change from GRMD Baseline (fraction) (Increased in GRMD): 0.0538 fraction
Apolipoprotein L1 (APOL1): Change from GRMD Baseline (fraction) (Increased in GRMD): -0.0015 fraction
Asialoglycoprotein receptor 1 (ASGR1): Change from GRMD Baseline (fraction) (Increased in GRMD): -0.0063 fraction
Bone morphogenetic protein 1 (BMP1): Change from GRMD Baseline (fraction) (Increased in GRMD): -0.0803 fraction
Breast cancer anti-estrogen resistance protein 3 (BCAR3): Change from GRMD Baseline (fraction) (Increased in GRMD): -0.0258 fraction
C5a anaphylatoxin (C5): Change from GRMD Baseline (fraction) (Increased in GRMD): -0.0743 fraction
C-C motif chemokine 1 (CCL1): Change from GRMD Baseline (fraction) (Increased in GRMD): 0.0039 fraction
C-C motif chemokine 3 (CCL3): Change from GRMD Baseline (fraction) (Increased in GRMD): -0.0317 fraction
C-X-C motif chemokine 5 (CXCL5): Change from GRMD Baseline (fraction) (Increased in GRMD): 0.0104 fraction
CD63 antigen (CD63): Change from GRMD Baseline (fraction) (Increased in GRMD): -0.0301 fraction
CD97 antigen (CD97): Change from GRMD Baseline (fraction) (Increased in GRMD): 0.0218 fraction
CD109 antigen (CD109): Change from GRMD Baseline (fraction) (Increased in GRMD): 0.0141 fraction
CD177 antigen (CD177): Change from GRMD Baseline (fraction) (Increased in GRMD): -0.108 fraction
Carbonic anhydrase 4 (CA4): Change from GRMD Baseline (fraction) (Increased in GRMD): 0.0571 fraction
Caspase-3 (CASP3): Change from GRMD Baseline (fraction) (Increased in GRMD): -0.049 fraction
Cell adhesion molecule 3 (CADM3): Change from GRMD Baseline (fraction) (Increased in GRMD): 0.0642 fraction
Change from GRMD Baseline (fraction): 1-phosphatidylinositol 4,5-bisphosphate phosphodiesterase gamma-1 (PLCG1) (Increased in GRMD): 0.0175 fraction
Change from GRMD Baseline (fraction): 14-3-3 protein family (YWHAB,YWHAE,YWHAG,YWHAH,YWHAQ,YWHAZ,SFN) (Increased in GRMD): -0.0622 fraction
Change from GRMD Baseline (fraction): 26S proteasome non-ATPase regulatory subunit 7 (PSMD7) (Increased in GRMD): -0.0966 fraction
Change from GRMD Baseline (fraction): 40S ribosomal protein S7 (RPS7) (Increased in GRMD): -0.1727 fraction
Change from GRMD Baseline (fraction): A disintegrin and metalloproteinase with thrombospondin motifs 5 (ADAMTS5) (Increased in GRMD): 0.0247 fraction
Change from GRMD Baseline (fraction): A disintegrin and metalloproteinase with thrombospondin motifs 15 (ADAMTS15) (Increased in GRMD): 0.1616 fraction
Change from GRMD Baseline (fraction): AH receptor-interacting protein (AIP) (Increased in GRMD): 0.0125 fraction
Change from GRMD Baseline (fraction): AMP Kinase (alpha2beta2gamma1) (PRKAA2 PRKAB2 PRKAG1) (Increased in GRMD): -0.177 fraction
Change from GRMD Baseline (fraction): ATP synthase subunit beta, mitochondrial (ATP5B) (Increased in GRMD): 0.0065 fraction
Change from GRMD Baseline (fraction): ATP-dependent RNA helicase DDX19B (DDX19B) (Increased in GRMD): -0.0978 fraction
Change from GRMD Baseline (fraction): Acidic leucine-rich nuclear phosphoprotein 32 family member B (ANP32B) (Increased in GRMD): -0.0886 fraction
Change from GRMD Baseline (fraction): Activin receptor type-1B (ACVR1B) (Increased in GRMD): -0.017 fraction
Change from GRMD Baseline (fraction): Adenylate kinase isoenzyme 1 (AK1) (Increased in GRMD): -0.2055 fraction
Change from GRMD Baseline (fraction): Adenylosuccinate lyase (ADSL) (Increased in GRMD): 0.0105 fraction
Change from GRMD Baseline (fraction): Afamin (AFM) (Increased in GRMD): -0.0171 fraction
Change from GRMD Baseline (fraction): Aflatoxin B1 aldehyde reductase member 2 (AKR7A2) (Increased in GRMD): -0.0506 fraction
Change from GRMD Baseline (fraction): Alcohol dehydrogenase [NADP(+)] (AKR1A1) (Increased in GRMD): -0.1025 fraction
Change from GRMD Baseline (fraction): Aminoacylase-1 (ACY1) (Increased in GRMD): -0.1248 fraction
Change from GRMD Baseline (fraction): Amphoterin-induced protein 2 (AMIGO2) (Increased in GRMD): -0.0371 fraction
Change from GRMD Baseline (fraction): Annexin A6 (ANXA6) (Increased in GRMD): -0.0862 fraction
Change from GRMD Baseline (fraction): Anterior gradient protein 2 homolog (AGR2) (Increased in GRMD): 0.2414 fraction
Change from GRMD Baseline (fraction): Apolipoprotein E (APOE) (Increased in GRMD): 0.0948 fraction
Change from GRMD Baseline (fraction): Apolipoprotein E (isoform E3) (APOE) (Increased in GRMD): 0.08 fraction
Change from GRMD Baseline (fraction): Apolipoprotein E (isoform E4) (APOE) (Increased in GRMD): 0.1456 fraction
Change from GRMD Baseline (fraction): Apoptosis regulator Bcl-2 (BCL2) (Increased in GRMD): 0.0105 fraction
Change from GRMD Baseline (fraction): Artemin (ARTN) (Increased in GRMD): -0.0439 fraction
Change from GRMD Baseline (fraction): Arylsulfatase B (ARSB) (Increased in GRMD): -0.1402 fraction
Change from GRMD Baseline (fraction): B-cell receptor CD22 (CD22) (Increased in GRMD): -0.069 fraction
Change from GRMD Baseline (fraction): Baculoviral IAP repeat-containing protein 5 (BIRC5) (Increased in GRMD): 0.0116 fraction
Change from GRMD Baseline (fraction): Basal Cell Adhesion Molecule (BCAM) (Increased in GRMD): -0.0408 fraction
Change from GRMD Baseline (fraction): Bcl-2-like protein 1 (BCL2L1) (Increased in GRMD): 0.0111 fraction
Change from GRMD Baseline (fraction): Bone sialoprotein 2 (IBSP) (Increased in GRMD): -0.0621 fraction
Change from GRMD Baseline (fraction): C-C motif chemokine 13 (CCL13) (Increased in GRMD): -0.0609 fraction
Change from GRMD Baseline (fraction): C-C motif chemokine 23 (CCL23) (Increased in GRMD): -0.0197 fraction
Change from GRMD Baseline (fraction): CCAAT/enhancer-binding protein beta (CEBPB) (Increased in GRMD): -0.0884 fraction
Change from GRMD Baseline (fraction): CD59 glycoprotein (CD59) (Increased in GRMD): 0.0101 fraction
Change from GRMD Baseline (fraction): Calcineurin (PPP3CA PPP3R1) (Increased in GRMD): -0.1169 fraction
Change from GRMD Baseline (fraction): Calcineurin subunit B type 1 (PPP3R1) (Increased in GRMD): 0.0394 fraction
Change from GRMD Baseline (fraction): Calcium/calmodulin-dependent protein kinase type 1 (CAMK1) (Increased in GRMD): -0.0409 fraction
Change from GRMD Baseline (fraction): Calcium/calmodulin-dependent protein kinase type 1D (CAMK1D) (Increased in GRMD): -0.0326 fraction
Change from GRMD Baseline (fraction): Calcium/calmodulin-dependent protein kinase type II subunit alpha (CAMK2A) (Increased in GRMD): -0.2874 fraction
Change from GRMD Baseline (fraction): Calcium/calmodulin-dependent protein kinase type II subunit beta (CAMK2B) (Increased in GRMD): -0.2753 fraction
Change from GRMD Baseline (fraction): Calcium/calmodulin-dependent protein kinase type II subunit delta (CAMK2D) (Increased in GRMD): -0.216 fraction
Change from GRMD Baseline (fraction): Calpain I (CAPN1 CAPNS1) (Increased in GRMD): 0.0953 fraction
Change from GRMD Baseline (fraction): Calpastatin (CAST) (Increased in GRMD): -0.0561 fraction
Change from GRMD Baseline (fraction): Carbonic anhydrase 3 (CA3) (Increased in GRMD): -0.1807 fraction
Change from GRMD Baseline (fraction): Cardiotrophin-1 (CTF1) (Increased in GRMD): -0.0345 fraction
Change from GRMD Baseline (fraction): Catalase (CAT) (Increased in GRMD): -0.0112 fraction
Change from GRMD Baseline (fraction): Choline/ethanolamine kinase (CHKB) (Increased in GRMD): -0.0392 fraction
Change from GRMD Baseline (fraction): Chymase (CMA1) (Increased in GRMD): -0.0173 fraction
Change from GRMD Baseline (fraction): Clusterin (CLU) (Increased in GRMD): 0.1057 fraction
Change from GRMD Baseline (fraction): Complement component C6 (C6) (Increased in GRMD): 0.2667 fraction
Change from GRMD Baseline (fraction): Complement component C8 (C8A C8B C8G) (Increased in GRMD): 0.004 fraction
Change from GRMD Baseline (fraction): Complement factor D (CFD) (Increased in GRMD): 0.0267 fraction
Change from GRMD Baseline (fraction): Creatine kinase M-type (CKM) (Increased in GRMD): -0.092 fraction
Change from GRMD Baseline (fraction): Creatine kinase M-type:Creatine kinase B-type heterodimer (CKB CKM) (Increased in GRMD): -0.1124 fraction
Change from GRMD Baseline (fraction): Cyclin-dependent kinase inhibitor 1B (CDKN1B) (Increased in GRMD): -0.1243 fraction
Change from GRMD Baseline (fraction): Cysteine and glycine-rich protein 3 (CSRP3) (Increased in GRMD): -0.1208 fraction
Change from GRMD Baseline (fraction): Cytochrome c (CYCS) (Increased in GRMD): -0.3895 fraction
Change from GRMD Baseline (fraction): DNA repair protein RAD51 homolog 1 (RAD51) (Increased in GRMD): 0.0454 fraction
Change from GRMD Baseline (fraction): Desmoglein-1 (DSG1) (Increased in GRMD): 0.0063 fraction
Change from GRMD Baseline (fraction): Dickkopf-like protein 1 (DKKL1) (Increased in GRMD): -0.0126 fraction
Change from GRMD Baseline (fraction): Down syndrome cell adhesion molecule (DSCAM) (Increased in GRMD): -0.0254 fraction
Change from GRMD Baseline (fraction): Dual specificity mitogen-activated protein kinase kinase 1 (MAP2K1) (Increased in GRMD): -0.2424 fraction
Change from GRMD Baseline (fraction): Dual specificity protein phosphatase 3 (DUSP3) (Increased in GRMD): -0.1403 fraction
Change from GRMD Baseline (fraction): Dynein light chain roadblock-type 1 (DYNLRB1) (Increased in GRMD): -0.3202 fraction
Change from GRMD Baseline (fraction): Ectonucleoside triphosphate diphosphohydrolase 1 (ENTPD1) (Increased in GRMD): -0.0389 fraction
Change from GRMD Baseline (fraction): Endothelin-converting enzyme 1 (ECE1) (Increased in GRMD): -0.0078 fraction
Change from GRMD Baseline (fraction): Ephrin type-A receptor 1 (EPHA1) (Increased in GRMD): -0.0034 fraction
Change from GRMD Baseline (fraction): Ephrin type-B receptor 6 (EPHB6) (Increased in GRMD): 0.0412 fraction
Change from GRMD Baseline (fraction): Epidermal growth factor (EGF) (Increased in GRMD): -0.0427 fraction
Change from GRMD Baseline (fraction): Epidermal growth factor receptor variant III (EGFR) (Increased in GRMD): -0.0407 fraction
Change from GRMD Baseline (fraction): Erythropoietin receptor (EPOR) (Increased in GRMD): -0.0103 fraction
Change from GRMD Baseline (fraction): Estrogen receptor (ESR1) (Increased in GRMD): -0.0238 fraction
Change from GRMD Baseline (fraction): Eukaryotic translation initiation factor 4H (EIF4H) (Increased in GRMD): -0.3775 fraction
Change from GRMD Baseline (fraction): Eukaryotic translation initiation factor 4 gamma 2 (EIF4G2) (Increased in GRMD): -0.2701 fraction
Change from GRMD Baseline (fraction): Extracellular matrix protein 1 (ECM1) (Increased in GRMD): 0.014 fraction
Change from GRMD Baseline (fraction): Fibroblast growth factor 8 isoform B (FGF8) (Increased in GRMD): -0.0376 fraction
Change from GRMD Baseline (fraction): Fibroblast growth factor 9 (FGF9) (Increased in GRMD): -0.0507 fraction
Change from GRMD Baseline (fraction): Fibronectin Fragment 4 (FN1) (Increased in GRMD): -0.0265 fraction
Change from GRMD Baseline (fraction): Follistatin (FST) (Increased in GRMD): -0.0231 fraction
Change from GRMD Baseline (fraction): Fractalkine (CX3CL1) (Increased in GRMD): 0.0106 fraction
